For assay [1], the target named is T1, Cif (Pseudomonas aeruginosa (strain UCBPP-PA14), UniProt A0A0H2ZD27). Put plainly: Fluorescent-based Cif inhibitory assay (CMNGC).
Text: Cyano (6-methoxynaphthalen-2-yl) methyl glycidyl carbonate (CMNGC) was used as a fluorescent reporter substrate.
Reported IC50 values are the average of triplicates with at least two data points above and at least two below the IC50.
For assay [2], the target named is T1, Cif. Briefly: Screen of soluble epoxide hydrolase inhibitors for Cif inhibition. It counts as biochemical.
Procedure: To identify additional inhibitors of the Cif enzyme, further screening assays were conducted.
For assay [3], the target named is T1, Cif. Briefly: Radioactivity epoxide hydrolase assay with tritium-labeled cis-stilbene oxide (CSO). It counts as biochemical. Also noted: concentration or dose not given beside the values. As to conditions: for Inhibition (%): radioactivity assay, CSO substrate, initial screen and retest (Table 8).
Assay [4] has as its target T1, Cif. Put plainly: Kinetics of 14,15-EET hydrolysis by Cif. The following applies: [E]=0.2 μM. It counts as biochemical. How it is done: Detailed kinetic information on the interaction of Cif with an endogenous arachidonic acid-derived signaling epoxide, 14,15-EET (14,15-epoxyeicosa-5,8,11-trienoic acid), was also obtained.
Specifically, three concentrations of 14,15-EET were used (0.5, 5 and 50 μM), along with two different incubation times (90 and 180 minutes) and a low enzyme concentration ([E]=0.2 μM). The results were similar at 90 and 180 minutes, confirming that the assay was within the linear range of catalysis. Less than 5% of the substrate was converted: [S]=0.5 μM, v=0.003 pmol/minute; [S]=5 μM, v=0.02 pmol/minute; and [S]=50 μM, v=1.2 pmol/minute.

Assay [5] addresses T1, Cif. Briefly: Primary high throughput screen with fluorogenic substrate CMNGC.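 Also: fluorescence of 200 µL reactions in 96-well plates read on a plate reader, inhibitor at tenfold molar excess over Cif enzyme.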 It counts as biochemical.
Procedure: All high throughput screening assays were performed using 96-well plates, a 200 μL reaction volume, and a fluorescent plate reader. […] The fluorescent signal was measured after allowing the enzyme reaction to proceed for 60 minutes.
A library of 1600 FDA-approved compounds was screened for Cif inhibitory activity.
The screen was performed with only a 10-fold stoichiometric excess of inhibitor over Cif enzyme.
Assay [6] has as its target T1, Cif. Put plainly: Secondary screen (sextuplicate) with fluorogenic substrate CMNGC.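 Also: purified enzyme assay in 96-well plates, 200 µL volume, fluorescence recorded each minute across a 60 min reaction.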 It counts as biochemical.
Procedure: All high throughput screening assays were performed using 96-well plates, a 200 μL reaction volume, and a fluorescent plate reader. […] The fluorescent signal was measured after allowing the enzyme reaction to proceed for 60 minutes. The secondary screen was performed using the same conditions as the primary screen, except that fluorescent readings were taken every minute for the 60-minute reaction.
Subsequently, the filtered primary hits were retested to validate the observed inhibitory effect.
The target of assay [7] is T1, Cif. Put plainly: Re-test of screening hits with fresh preparations. It counts as biochemical.
The next assay deals with CifR. Briefly: In vitro DNA binding assay of CifR. On the set-up: species or system Pseudomonas aeruginosa. The source says:
(§1) Cif is expressed by P. aeruginosa as part of a three gene operon. This operon is negatively regulated by CifR, an epoxide sensitive TetR family repressor (MacEachran, et al. (2008) supra). CifR binds to DNA and prevents the transcriptional machinery from accessing the promoter for the Cif operon. Upon exposure to an epoxide containing molecule, CifR releases DNA, resulting in increased transcription of the Cif operon and increased Cif protein production. It has been previously shown that Cif and CifR have overlapping substrate/ligand specificities (MacEachran, et al. (2008) supra). Therefore, it is important to consider any potential Cif inhibitor in the context of the bacterial response. If an inhibitor were to trigger P. aeruginosa to produce more Cif, the inhibitor concentrations could potentially be overwhelmed by excess Cif protein. […] This was not unexpected considering that many TetR family repressors have broad ligand binding specificities as well as multiple ligand binding sites (Schumacher & Brennan (2003) Res. Microbiol. 154:69-77). An important factor in determining if an exogenous compound will induce gene expression is its accessibility to the bacterial cytosol. Therefore, Cif protein levels were examined after P. aeruginosa was exposed to tiratricol.

Assay [8] relates to Cif expression by P. aeruginosa. Put plainly: Cif protein levels after exposure of P. aeruginosa to the compound. It counts as cell-based, Pseudomonas aeruginosa. The following applies: P. aeruginosa exposed to tiratricol.
Text: as §1

[9] abbreviates: Table 17 (R6-R9 series), CMNGC, average of triplicates.
Setting [10] is: Table 18 (biphenyl R series), CMNGC, average of triplicates.

“And” between values parts separate entries of the source, which are not always exact repeats. Equal values may be shown once. Where a name gives a salt, the structure may show the parent alone. Read-outs that look alike come from different tables or passages of the source. Bounds are passed on as bounds.

Consider 37 compounds from patent US10322118B2, “Compounds and methods for inhibiting Cif virulence factor” (priority 2012, dated 2019).

T1 sequence (A0A0H2ZD27 25-319 limits assumed): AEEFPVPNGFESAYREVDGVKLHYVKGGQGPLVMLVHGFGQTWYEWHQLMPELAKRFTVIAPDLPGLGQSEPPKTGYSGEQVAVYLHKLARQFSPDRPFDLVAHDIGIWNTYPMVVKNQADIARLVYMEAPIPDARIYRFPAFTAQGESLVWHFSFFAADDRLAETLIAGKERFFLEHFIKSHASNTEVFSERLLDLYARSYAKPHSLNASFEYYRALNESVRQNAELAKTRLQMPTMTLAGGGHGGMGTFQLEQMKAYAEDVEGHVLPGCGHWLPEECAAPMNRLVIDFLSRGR

Consider `CCOC(=O)CC(=O)Nc1cc(Br)c(Oc2cccc(C(C)C)c2)c(Br)c1` [Compound 1g], for which the “Cif inhibitory activity at 50 μM” value on Cif [1] was “fail to show inhibitory activity”. This compound also had an IC50 on Cif [1] (setting [9]) above 50 µM.

On Cif [1] (setting [9]), `C#Cc1cc(Oc2c(Cl)cc(NC(=O)CC(=O)OCC)cc2Cl)ccc1O` [Compound 1p] showed an IC50 of 2.9 µM. For `CCOC(=O)CC(=O)Nc1cc(Cl)c(Oc2ccc(O)cc2)c(Cl)c1` [Compound 1k], at Cif [1], the “Cif inhibitory activity at 50 μM” value is listed as “showed no inhibition”. The compound further registered an IC50 against Cif [1] (setting [9]) above 50 µM. In turn, `Cc1cc(C)cc(NC(=O)NC(=O)c2c(F)cccc2F)c1` [Entry 3] yielded an inhibition at 10 µM against Cif [2] of 39%.

For `CCOC(=O)CC(=O)Nc1cc(Br)c(Oc2ccc(OC)c(C(C)C)c2)c(Br)c1` [Compound 1h], at Cif [1], the “Cif inhibitory activity at 50 μM” value was “fail to show inhibitory activity”. Further, at Cif [1] (setting [9]), the IC50 was above 50 µM. On to `CCOC(=O)CC(=O)Nc1cc(Cl)c(Oc2ccc(O)cc2Br)c(Cl)c1` [Compound 1q], for which, at Cif [1] (setting [9]), the midpoint of inhibition, the IC50, lay at 29.3 µM. With `CCOC(=O)CC(=O)Nc1cc(Cl)c(Oc2ccc(O)c(Br)c2)c(Cl)c1` [Compound 1l], the IC50 against Cif [1] (setting [9]) is 4.9 µM. Turning to `CC(=O)N1CCC(NC(=O)NC2CCCCCC2)CC1` [Entry 14], the “Inhibition (%)” value at Cif [3] amounted to 6%. In turn, `O=C(NC(=O)c1c(F)cccc1F)Nc1cc(Cl)cc(Cl)c1` [Entry 4] yielded an inhibition at 10 µM on Cif [2] of 50%.

As for `CCC(=O)Nc1cc(Cl)c(Oc2ccc(O)c(-c3cccc(C(N)=O)c3)c2)c(Cl)c1` [Compound 8d], half-maximal inhibition against Cif [1] (setting [10]) (IC50) was put at 0.46 µM. In the case of `COC(=O)c1ccc(NC(=O)NC23CC4CC(CC(C4)C2)C3)cc1O` [Entry 13], on Cif [3], the “Inhibition (%)” value is recorded as 18%. In turn, `CCC(=O)N1CCC(NC(=O)Nc2ccc([N+](=O)[O-])cc2)CC1` [Entry 10] gave an inhibition at 10 µM on Cif [2] of 44%.

At Cif [2], `Cc1ccc(-c2cc(C(F)(F)F)nn2-c2ccc(S(N)(=O)=O)cc2)cc1` [Entry 9] displayed an inhibition at 10 µM of 38%. In turn, `CN(C(=O)NC(=O)c1c(F)cccc1F)c1ccc(Cl)cc1` [Entry 7] registered an inhibition at 10 µM on Cif [2] of 40%.

Turning to `CCC(=O)Nc1cc(Cl)c(Oc2ccc(O)c(-c3ccc(C(=O)NC)cc3)c2)c(Cl)c1` [Compound 8g], the IC50 against Cif [1] (setting [10]) came to 1.7 µM. Regarding `CCOC(=O)CC(=O)Nc1cc(Cl)c(Oc2ccc(O)c(C(C)C)c2)c(Cl)c1` [Compound 1i], the IC50 on Cif [1] (setting [9]) is 3.8 µM. At Cif [2], `O=C(NC(=O)c1c(F)cccc1F)Nc1ccc(Cl)c(C(F)(F)F)c1` [Entry 6] showed an inhibition at 10 µM of 38%. Moreover, the IC50 on Cif [1] was above 100 µM. Turning to `CCCCC[C@H]1O[C@H]1C/C=C\C/C=C\C/C=C\CCCC(=O)O` (stereo in doubt) [14,15-EET, 14,15-epoxyeicosa-5,8,11-trienoic acid], the substrate converted result at Cif [4] (90 and 180 minutes) is “Less than 5%”. Besides, the “v (hydrolysis rate)” value on Cif [4] ([S]=0.5 μM) was determined as 0.003 pmol/min; on Cif [4] ([S]=5 μM), 0.02 pmol/min; at Cif [4] ([S]=50 μM), 1.2 pmol/min. `CCC(=O)Nc1cc(Cl)c(Oc2ccc(O)c(-c3ccc(NC(N)=O)cc3)c2)c(Cl)c1` [Compound 8i]: the midpoint of inhibition on Cif [1] (setting [10]), the IC50, lay at 0.29 µM. For the compound `O=C(Nc1ccc(Cl)c(Cl)c1)Nc1ccc(Cl)c(Cl)c1` [Entry 18, N,N′-di-(3,4-dichlorophenyl) urea], the “Inhibition (%)” value at Cif [3] was 25.5%. Also, the “inhibition of Cif enzyme activity” value at Cif [3] (secondary screen of radioactivity assay, P=0.004) worked out at 25%. Further, on Cif [5] (10 μM DCPU positive control, average of 20 plates), the “% I, Positive Control Inhibitor, Average” value turned out to be 20%. Also, the “% I (percent of the total enzyme activity inhibited), Positive Control Inhibitor” value at Cif [5] (10 μM DCPU positive control, per plate of primary screen, listed as Positive Control Inhibitor) is 15.2% and 30.0%.

`CCOC(=O)CC(=O)Nc1cc(Cl)c(Oc2ccc(O)c(I)c2)c(Cl)c1` [Compound 1m] returned an IC50 on Cif [1] (setting [9]) of 3.8 µM. At Cif [1] (setting [10]), `CCC(=O)Nc1cc(Cl)c(Oc2ccc(O)c(-c3cccc(C#N)c3)c2)c(Cl)c1` [Compound 8f] gave an IC50 of 0.58 µM.

`CCC(=O)Nc1cc(Cl)c(Oc2ccc(O)c(-c3ccc(C(C)=O)cc3)c2)c(Cl)c1` [Compound 8k] displayed an IC50 against Cif [1] (setting [10]) of 0.35 µM. On to `CS(=O)(=O)N1CCC(NC(=O)Nc2ccc(OC(F)(F)F)cc2)CC1` [Entry 16], for which the “Inhibition (%)” value on Cif [3] was 14%. As to `O=C(Nc1ccc(Cl)cc1)Nc1ccc(Cl)cc1` [Entry 17], on Cif [3], the “Inhibition (%)” value came out at 7%. On the same count and under the same terms, the value for `O=C(Nc1ccc(OC(F)(F)F)cc1)NC1CCC(Oc2ccc(C(=O)O)cc2)CC1` (stereo not drawn) [Entry 15] was 17%. For the compound `CCC(=O)Oc1ccc(NC(=O)NC23CC4CC(CC(C4)C2)C3)cc1` [Entry 1], at 10 µM the inhibition on Cif [2] was 41%. For the compound `NC(CO)C(=O)NNCc1ccc(O)c(O)c1O` (stereo not drawn) [Benserazide hydrochloride], the inhibition at 10 µM turned out to be 86% against Cif [5] (primary screen, test compounds at 10 μM, 1 μM Cif, 25 μM CMNGC, 60 minutes); 79 ± 4% at Cif [6] (read-out: % Inhibition, Mean ± SD); 77% on Cif [6] (read-out: % Inhibition, plate 1); 85% on Cif [6] (read-out: % Inhibition, plate 2); 80% at Cif [6] (read-out: % Inhibition, plate 3); 74% on Cif [6] (read-out: % Inhibition, plate 4). In addition, the inhibition at 10 µM at Cif [6] (read-out: % Inhibition, plate 5) turned out to be 78%; on Cif [6] (read-out: % Inhibition, plate 6), 80%. Moreover, the “inhibition with fresh solution” value at Cif [7] (freshly prepared solution) is given as “lost all observable inhibition”. Further, the “inhibition after aging of solution” value at Cif [7] (solution aged 3 months at room temperature) is listed as “no detectable inhibition”.

Regarding `CCC(=O)Nc1cc(Cl)c(Oc2ccc(O)c(-c3ccc(C#N)cc3)c2)c(Cl)c1` [Compound 8e], half-maximal inhibition against Cif [1] (setting [10]) (IC50) was put at 11.9 µM. Take `CCC(=O)Nc1cc(Cl)c(Oc2ccc(O)c(-c3ccc(C(=O)O)cc3)c2)c(Cl)c1` [Compound 8b]: on Cif [1] (setting [10]), the IC50 was 10.5 µM. The compound `CCOC(=O)CC(=O)Nc1cc(Cl)c(Oc2ccc(O)c(C(F)(F)F)c2)c(Cl)c1` [Compound 1n] gave an IC50 on Cif [1] (setting [9]) of 3 µM. `NC(Cc1ccc(Oc2ccc(O)c(I)c2)c(I)c1)C(=O)O` (stereo not drawn) [Entry 4] yielded an IC50 against Cif [1] of 80 ± 10 µM. As to `O=C(NC1CCC(Oc2ccc(C(=O)O)cc2)CC1)NC12CC3CC(CC(C3)C1)C2` (stereo not drawn) [Entry 12], at Cif [3], the “Inhibition (%)” value is reported as 14%. Compound `CCOC(=O)CC(=O)Nc1ccc(Oc2ccc(O)c(C(C)C)c2)c(Cl)c1` [Compound 1j] showed an IC50 on Cif [1] (setting [9]) of 11.6 µM. As for `NC(Cc1cc(I)c(Oc2cc(I)c(O)c(I)c2)c(I)c1)C(=O)O` (stereo not drawn) [Entry 6], at Cif [1], the IC50 is above 100 µM. For the compound `CCC(=O)Nc1cc(Cl)c(Oc2ccc(O)c(-c3ccc(S(N)(=O)=O)cc3)c2)c(Cl)c1` [Compound 8l], the IC50 against Cif [1] (setting [10]) was determined as 2 µM. Take `O=C(O)Cc1cc(I)c(Oc2ccc(O)c(I)c2)c(I)c1` [Tiratricol, 3,3′,5-triiodothyroacetic acid]: the “release of CifR from DNA” value in the assay with CifR was “caused CifR to release from DNA as efficiently as a previously characterized epoxide ligand”. Further, the Cif expression entry in [8] was “no detectable increase in Cif expression”.
